Common to all, as to type: in vivo
For test [1], the system named is rice blast fungus Pyricularia oryzae. Conditions: alone.
The test system of test [2] is cucumber anthracnose fungus Colletotrichum orbiculare. Conditions: alone, rating scale of Test Example 1.
Test [3] has as its system leaf rust fungus Puccinia recondita. Kind of test: Test for control efficacy against wheat leaf rust. Conditions: alone, scale of 0 to 10. As for the experimental part:
Test for Control Efficacy Against Wheat Leaf Rust
The agrochemical formulations diluted to predetermined concentrations were applied to wheat plants at a predetermined amount with a spray gun. After air-drying, the wheat plants were spray-inoculated with a spore suspension of the leaf rust fungus Puccinia recondita (1.0×10^7 spores/mL). After that, the wheat pots were kept in a greenhouse under light conditions at 15° C. and 100% RH to induce the development of the disease. At 7 days after the inoculation, the disease area percentage was indexed on a scale of 0 to 10 to evaluate the control efficacy.

The subject of test [4] is cucumber gray mold fungus Botrytis cinerea. Kind of test: Test for control efficacy against cucumber gray mold. Conditions: alone, from diameter of lesion area. As for the experimental part:
Test for Control Efficacy Against Cucumber Gray Mold
The agrochemical formulations diluted to predetermined concentrations were applied to the foliage of cucumber plants (variety: Suuyou) at the one-leaf stage grown in individual pots. The application rate was 50 mL per pot. On the day following the application, 6-mm-diameter paper disks were impregnated with a spore suspension of the cucumber gray mold fungus Botrytis cinerea cultured on PSA medium, and inoculated onto cucumber true leaves. The pots were kept at a temperature of 20° C. and a humidity of 100%. At 6 days after the inoculation, the control value was determined by the equation 4 shown below.
Control value (%)=(diameter of lesion area in non-treatment plot−diameter of lesion area in treatment plot)×100/diameter of lesion area in non-treatment plot [Math. 4]

The test system of test [5] is wheat speckled leaf blotch fungus Septoria tritici. Kind of test: Test for wheat speckled leaf blotch (Septoria tritici). Conditions: alone. As for the experimental part:
Test for Wheat Speckled Leaf Blotch (Septoria tritici)
The agrochemical formulations diluted to predetermined concentrations were applied to wheat plants at a predetermined amount with a spray gun. After air-drying, the wheat plants were spray-inoculated with a spore suspension of the wheat speckled leaf blotch fungus Septoria tritici (1.0×10^7 spores/mL). After that, the wheat pots were kept in a greenhouse under light conditions at 15° C. and 100% RH to induce the development of the disease. At 17 days after the inoculation, the disease area percentage was indexed on a scale of 0 to 10 to evaluate the control efficacy. The control value is expressed in percentage (%) as shown below or in index form as in Example 1.
Disease Severity Index Scale
0: No manifestation of disease
1: Lesion area percentage is 1 to 10%.
2: Lesion area percentage is 11 to 20%.
3: Lesion area percentage is 21 to 30%.
4: Lesion area percentage is 31 to 40%.
5: Lesion area percentage is 41 to 50%.
6: Lesion area percentage is 51 to 60%.
7: Lesion area percentage is 61 to 70%.
8: Lesion area percentage is 71 to 80%.
9: Lesion area percentage is 81 to 90%.
10: Lesion area percentage is 91 to 100%.
Control value (%)=(disease severity index in non-treatment plot−disease severity index in treatment plot)×100/disease severity index in non-treatment plot [Math. 3]

In test [6] the test system is tomato late blight fungus Phytophthora infestans. Conditions: alone, rating scale of Test Example 2.

Read-outs that look alike come from different tables or passages of the source.

As to `Fc1ccc([C@]2(Cn3cncn3)O[C@H]2c2ccccc2Cl)cc1` (racemic) [Epoxiconazole 8EC, epoxiconazole], the Control value in test [1] (0.5 ppm, ten-point scale) worked out at 0.0; in test [1] (2 ppm, ten-point scale) it was 3.0; in test [1] (8 ppm, ten-point scale) it was 10; in test [2] (0.5 ppm), 0.0; in test [2] (2 ppm), 0.0; in test [3] (0.5 ppm), 7.0. Also, the Control value is listed as 10.0 in test [3] (2 ppm), 55% in test [4] (67 ppm) and 100% in test [4] (200 ppm). The “Control value (%)” value in test [5] (0.4 ppm, Compound [1-5] series) is on record as 0%; in test [5] (1.1 ppm, Compound [1-5] series), 0%; in test [5] (2 ppm, Compound [1-7] series), 0.0%; in test [5] (3.3 ppm, Compound [1-5] series), 16%; in test [5] (8 ppm, Compound [1-7] series), 6.0%; in test [5] (10 ppm, Compound [1-5] series) it was 86%.
Consider `O=C(Nc1ccccc1-c1ccc(Cl)cc1)c1cccnc1Cl` [Boscalid 50WG, boscalid], for which the values for the Control value in test [4] (2 ppm), in test [4] (7 ppm) and in test [4] (22 ppm) were 8%, 18% and 20%, respectively.
As for `CCC(Nc1ncnc(C)c1Cl)c1ccc(OC(F)F)cc1` (centres unmarked) [Diflumetorim 10EC, diflumetorim], the Control value in test [1] (10 ppm, ten-point scale) came out at 8.0; in test [2] (10 ppm) it was 2.0; in test [3] (10 ppm), 1.0.
Take `CC1(C(=O)Nc2ccc(O)c(Cl)c2Cl)CCCCC1` [Fenhexamid 50SC, fenhexamid]: the Control value amounted to 0% in test [4] (7 ppm), 0% in test [4] (22 ppm) and 53% in test [4] (200 ppm).
In the case of `N#Cc1c[nH]cc1-c1cccc2c1OC(F)(F)O2` [Fludioxonil 20SC, fludioxonil], the Control value is 6.0 in test [1] (3 ppm, ten-point scale); 9.0 in test [1] (10 ppm, ten-point scale); 7.0 in test [2] (3 ppm); 9.5 in test [2] (10 ppm); 0.0 in test [3] (3 ppm); 0.0 in test [3] (10 ppm). Also, the Control value was determined as 4.0 in test [3] (200 ppm), 0% in test [4] (7 ppm) and 59% in test [4] (22 ppm).
Regarding `O=C(NCCc1ncc(C(F)(F)F)cc1Cl)c1ccccc1C(F)(F)F` [Fluopyram 50SC, fluopyram], the Control value in test [1] (regardless of the concentration) came to 0; in test [2] (3 ppm), 0.0; in test [2] (10 ppm) it was 2.0. The “Control value (%)” value in test [5] (10 ppm, Compound [1-7] series) worked out at 0.0%.
`Cn1cc(C(=O)Nc2ccccc2-c2cc(F)c(F)c(F)c2)c(C(F)F)n1` [Fluxapyroxad 6EC, fluxapyroxad]: the Control value stood at 0.0 in test [1] (0.3 ppm, ten-point scale); 0.0 in test [1] (1 ppm, ten-point scale); 0.0 in test [2] (1 ppm); 0.0 in test [6] (1 ppm). Besides, the “Control value (%)” value stood at 16% in test [5] (0.07 ppm, Compound [1-5] series); 31% in test [5] (0.22 ppm, Compound [1-5] series); 65% in test [5] (0.67 ppm, Compound [1-5] series); 0.0% in test [5] (1 ppm, Compound [1-7] series); 98% in test [5] (2.0 ppm, Compound [1-5] series); 99% in test [5] (6.0 ppm, Compound [1-5] series).
With `O=C(Nc1ccccc1-c1ccc(F)c(F)c1)c1nccnc1C(F)(F)F` [Pyraziflumid 20SC, pyraziflumid], the Control value was found to be 0.0 in test [2] (0.5 ppm), 0.0 in test [2] (2 ppm), 2.0 in test [3] (2 ppm) and 0.0 in test [6] (2 ppm). Moreover, the “Control value (%)” value amounted to 1% in test [5] (0.2 ppm, Compound [1-5] series); 53% in test [5] (0.7 ppm, Compound [1-5] series); 6.0% in test [5] (2 ppm, Compound [1-7] series); 92% in test [5] (2.2 ppm, Compound [1-5] series); 99% in test [5] (6.7 ppm, Compound [1-5] series); 100% in test [5] (20 ppm, Compound [1-5] series).
`CC(C)(C)C(O)(CCc1ccc(Cl)cc1)Cn1cncn1` (centres unmarked) [Tebuconazole 25EW, tebuconazole]: the Control value in test [1] (0.3 ppm, ten-point scale) worked out at 0.0; in test [1] (1 ppm, ten-point scale) it was 0.0; in test [2] (0.3 ppm), 0.0; in test [6] (1 ppm) it was 0.0. Moreover, the “Control value (%)” value in test [5] (1 ppm, Compound [1-7] series) came to 0.0%.

The values above are taken from patent publication US20210298299A1 (priority 2018, published 2021).
